From US9682994B2, “Inhibitors of retroviral replication” (The Scripps Research Institute, priority 2011, dated 2017)

Key:
[1] = test system: HIV-1 pNL4-3; assay: Acute HIV-1 infection, HeLa-CD4-LTR-LacZ reporter CPRG assay; type: cell-based
Description: Forty-eight hours post infection a quantitative chlorophenol red-β-D-galactopyranoside (CPRG) assay was performed.
Twenty-four hours later HIV-1 pNL4-3 was added to the cells of both experiment sets (MOI>>10) in the presence of testing compound or DMSO control. CPRG assay performed 48 h later.
HeLa-CD4 cells were infected with HIV-1 pNL4-3 in the presence of the indicated compounds or DMSO. Forty hours post infection a CPRG assay was performed. […] Error bars represent standard deviation.
P42 cells were plated at 1×10^4 cells per well of 96 well. Twenty-four hours later HIV-1 pNL4-3 was added to the wells in the presence of testing compound or DMSO control in a total volume of […] Forty hours post infection cells were disrupted in lysis buffer (60 mM Na2HPO4, 40 mM NaH2PO4, 10 mM KCl, 10 mM MgSO4, 2.5 mM EDTA, 50 mM β-mercaptoethanol, 0.125% Nonidet P-40) and a quantitative chlorophenol red-β-D-galactopyranoside (CPRG)-based (Boehringer Mannheim) assay was performed. The cell extracts were incubated in a reaction buffer (0.9 M phosphate buffer [pH 7.4], 9 mM MgCl2, 11 mM β-mercaptoethanol, 7 mM CPRG) until a red color developed (from approximately 10 min to 4 h) and measured with an LP400 (Becton Dickinson) plate reader at 572 nm. Experiments were performed in triplicate.
Transcription of the HIV-1 provirus is regulated by both viral and cellular transcription factors. Before Tat is produced, low-level basal transcription from the viral promoter is initiated by cellular factors, such as the nuclear factor-kappa B (NF-kB), Sp1, TATA-binding protein and RNAPII. A desirable Tat inhibitor should block Tat-mediated activation of the viral promoter without affecting its basal transcription, which would result in cellular toxicity, given the shared transcription factors of the HIV promoter and cellular genes.

[2] = test system: Tat; assay: Biotinylated compound streptavidin-bead pull-down of Tat; type: binding, HIV-1; settings: for competition for binding of recombinant Tat to Bio-dCA: excess competitor
Description: (§1) HEK293T cells were transfected with flag-tagged Tat 101 a.a. (Tat-F-101-wt), a shorter Tat version with 86 a.a. (Tat-F-86-wt), Tat 86 a.a. mutated in the basic domain (Tat-F-BRM), flag-tagged CDK11 (CDK11-F), flag-tagged 9G8 (9G8-F) and empty vector control.
Recombinant Tat protein was incubated with Bio-dCA streptavidin-coated beads in the presence or absence of an excess of non-biotinylated dCA (represented as molar equivalent [eq.] of Bio-dCA). Raltegravir and recombinant GST-9G8 were used as a negative control competitor or as negative protein-binding control, respectively.
(§2) DYNABEADS® MYONE™ Streptavidin T1 (12.5 μl slurry) (Invitrogen) were pre-saturated with 1.88 μl of 1 mM in DMSO of Biotin alone or Bio-dCA and incubated for 1 h at room temperature with orbital rocking, plus an additional 30 min with Biotin (0.63 μl of 1 mM in DMSO). Protein extracts (250 μg per sample) were incubated with the pre-saturated beads in lysis buffer supplemented with 0.1% BSA for 1 h at 4° C. with orbital rocking. After incubation, the beads were washed three times with lysis buffer.
For the pull-down of recombinant Tat (#2222 of NIH) and GST-9G8, streptavidin-agarose beads (40 μl slurry) were pre-saturated with 1.5 μl of 1 mM in DMSO, Biotin alone, or Bio-dCA and incubated for 1 h at room temperature. […] After incubation, the beads were washed three times with PBS and proteins were eluted as before.

[3] = test system: basic region Tat mutant (Tat-1 BRM); assay: Biotinylated compound pull-down of basic region Tat mutant; type: binding, HIV-1
Description: as §1, §2

[4] = target: T1, DNA-dependent protein kinase (DNA-PK) catalytic subunit (Homo sapiens, UniProt P78527); assay: Bio-CA pull-down / mass spectrometry, DNA-PK; type: binding
T1 construct: endogenous in cells; host or cells: P42 (HeLa-CD4-LTR-LacZ) cells; HEK293T cells
Description: FIG. 14: Bio-CA associated proteins. […] After SDS-PAGE analysis and Coomassie staining, gel slices were trypsin-digested and sent to mass spectrometry analysis.
To identify cellular proteins associated with CA, a biotinylated form of the compound (Bio-CA) was used. […] The Bio-CA was used to cover streptavidin-coated magnetic beads to pull down interacting proteins from either uninfected or chronically infected lysates of cells grown in the presence or absence of CA for 48 hours (FIG. 14D). The identity of the proteins pulled down under the different conditions was determined by HPLC MS/MS analysis. The proteins were identified with a greater than 95% confidence using a proprietary Scripps proteomics software package for protein identification, statistical analysis, and mass/peptide sequence correlation. The HIV proteome was added to the proteomics software search database before analysis. Many proteins were identified in uninfected untreated and in chronically untreated samples (approximately 300), however only 53 were displaced by more than 50% by the presence of CA. Of these 53 proteins, it appears that at least 2 may have a role in HIV-1 replication: DNA-dependent protein kinase catalytic subunit (DNA-PK) and helicase like transcription factor (HLTF).

[5] = test system: CMV and MLV promoters; assay: Transcription from CMV and MLV promoters; type: cell-based
Excerpt: DNA-PK was identified as a binding partner of CA by mass spectrometry and further confirmation of this interaction was provided by performing a pull down assay (FIG. 15). Without wishing to be bound by theory, it was hypothesized that part of the mechanism by which CA inhibits HIV replication is by blocking the accrued DNA-PK phosphorylation of Sp1 mediated by Tat with a consequent reduction in both basal and Tat-mediated transcriptional activation of the HIV LTR promoter. Sp1 is thought to be essential for basal transcription and Tat-mediated activation of HIV-1.

[6] = test system: human umbilical vein endothelial cells (HUVECs); settings: read-out: average half maximal inhibitory concentration (IC50), anti-proliferative; cited from earlier work
[7] = target: CDK11 (Homo sapiens, UniProt Q9BWU1); settings: cited from earlier work
[8] = target: CDK8 (Homo sapiens, UniProt P49336); settings: cited from earlier work
[9] = target: ROCK II (Homo sapiens, UniProt O75116); settings: cited from earlier work
[10] = target: Sp1 (Homo sapiens, UniProt P08047); assay: Bio-CA pull-down, Sp1
Description: HEK293T cells were transfected with wt-Tat101-flag, vvtTat86-flag, Tat86mutant-TAR domain, CDK11-flag or 9G8-flag as negative control. Forty hours later, protein extracts were incubated with DYNABEADS® MYONE™ Streptavidin T1 coated with either biotin or Biotinylated-CA. Pulled down proteins analyzed by Western blot with the indicated antibodies.

[11] = test system: RNA polymerase; assay: Bio-CA pull-down, RNA polymerase
[12] = target: CDK11 (Homo sapiens, UniProt P21127); assay: Biotinylated compound pull-down of CDK11; type: binding; design: expressed in transfected cells; host or cells: HEK293T
Description: as §1, §2

[13] = test system: HIV-1 pNL43; assay: HIV-1 replication in PHA/IL-2 stimulated human PBMCs, p24 ELISA; type: cell-based; settings: p24 ELISA, 5 days post infection
Description: Freshly isolated uninfected human PBMCs were stimulated with PHA for two days, washed, and grown from then on in IL-2 alone. […] Antigen p24 was measured 5 days post infection using a sandwich ELISA kit.
To isolate PBMCs, 24 ml of total blood diluted two fold in RPMI or PBS were carefully layered over 12 ml of Ficoll-paque and centrifuged at 2000 rpm for 20 min (brakes off). Resultant layers are approximately from top to bottom: plasma-platelets-PBMC-Ficoll-red blood cells (with granulocytes). Most of the plasma was pipetted off and discarded. The buffy coat with PBMC's was carefully removed from 3 large (50 ml) tubes and transferred to a new 50 ml tube. The remaining Ficoll and red blood cells were discarded in closed tubes. Enough PBS was added to the PBMCs to make up 50 ml and centrifuged at 1200 rpm for 10 min, brakes on. The supernatant was decanted and the pellet was loosened and washed twice with PBS. Washed pellet was recovered in 30 ml of RPMI 1640 supplemented with 10% serum, 1% Penicillin-streptomycin and mixed well. PBMCs were counted and plated at 1×10^6 cells/ml. To activate the PBMCs, PHA (phytohaemagglutinin) was added at 3 μg/ml. Two to three days later add Interleukin 2 (IL2) at 3×10^−3 μg/ml.
PHA activated PBMCs were centrifuged and recovered at 6×10^6 cells in 3 ml complete RPMI. Then 3 ml of viral supernatant was added and incubated for 4 h at 37° C. After this period, cells were centrifuged, washed 3 times with PBS and recovered in 3 ml complete RPMI. PBMCs were plated at 0.5 ml per well in a 6-well plate, and 0.5 ml media with DMSO control or anti-viral control at 2× final concentration was added. IL-2 was added at 3×10^−3 μg/ml. Supernatant was recovered for p24 assay every 3-4 days post infection. Cells were split at 1×10^6 cell per ml every 5-7 days.
HIV-1 transcription is intimately linked to T-cell activation due to shared motifs between the HIV-LTR and the regulatory regions in induced genes, namely NF-κB. A large variety of T cell stimuli activate NF-κB, including PHA, IL-2 and tumor necrosis factor alpha (TNF-α).

[14] = test system: HeLa-CD4 cells; assay: MTT mitochondrial metabolic activity (cell viability); type: cell-based
[15] = test system: HIV-1 pNL4-3; assay: Chronically HIV-1 infected HeLa-CD4 cells, viral RNA by qRT-PCR / p24; type: cell-based; settings: Human immunodeficiency virus 1; read-out: EC50 for abrogating chronic HIV infection
Description: FIG. 1G: p24 antigen quantification. Viral supernatants recovered from cells described in FIG. 1B, grown for 60 days, were assayed for their p24 antigen content using a sandwich ELISA kit. Error bars represent standard deviations.
First-strand cDNA from RNA for qPCR was prepared using […]™ first-strand cDNA kit (Invitrogen), following the manufacturer's instructions, using approximately 5 μg of RNA as starting material and random hexamers as first-strand primers. Quantitative PCR was performed with an aliquot of cDNA as template, using […]® 480 SYBR Green I Master (Roche) in a 20 μL reaction according to the manufacturer's instructions. […] The primers used were as follows: […]
Such an early time point rules out de novo infections. […] This conclusion was further supported by the fact that treatment of cells that were chronically infected, and therefore continuously shedding the virus (without incurring new infections, due to down-regulation of CD4 from the cell surface), reduced virus production to undetectable levels (FIG. 1F). […] Results were similar when viral release from cells treated for 60 days were measured by p24 enzyme-linked immunosorbent assay (ELISA) (FIG. 1G).

CDK11 (Homo sapiens, UniProt Q9BWU1), sequence (Q9BWU1 whole entry): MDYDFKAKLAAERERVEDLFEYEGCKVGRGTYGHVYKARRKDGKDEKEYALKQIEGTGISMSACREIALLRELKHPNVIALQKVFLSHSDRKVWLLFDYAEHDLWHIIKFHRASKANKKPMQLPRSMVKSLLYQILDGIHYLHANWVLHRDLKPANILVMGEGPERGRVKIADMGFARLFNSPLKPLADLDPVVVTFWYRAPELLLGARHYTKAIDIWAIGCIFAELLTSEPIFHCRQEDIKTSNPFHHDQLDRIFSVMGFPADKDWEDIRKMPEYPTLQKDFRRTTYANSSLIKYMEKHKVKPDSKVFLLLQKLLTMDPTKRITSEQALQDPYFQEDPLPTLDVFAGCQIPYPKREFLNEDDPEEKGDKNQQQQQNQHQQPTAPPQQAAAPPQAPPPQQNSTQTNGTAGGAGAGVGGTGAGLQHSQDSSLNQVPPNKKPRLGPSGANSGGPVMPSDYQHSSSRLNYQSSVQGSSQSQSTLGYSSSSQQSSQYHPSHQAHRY
CDK11 (Homo sapiens, UniProt P21127), sequence (P21127 whole entry): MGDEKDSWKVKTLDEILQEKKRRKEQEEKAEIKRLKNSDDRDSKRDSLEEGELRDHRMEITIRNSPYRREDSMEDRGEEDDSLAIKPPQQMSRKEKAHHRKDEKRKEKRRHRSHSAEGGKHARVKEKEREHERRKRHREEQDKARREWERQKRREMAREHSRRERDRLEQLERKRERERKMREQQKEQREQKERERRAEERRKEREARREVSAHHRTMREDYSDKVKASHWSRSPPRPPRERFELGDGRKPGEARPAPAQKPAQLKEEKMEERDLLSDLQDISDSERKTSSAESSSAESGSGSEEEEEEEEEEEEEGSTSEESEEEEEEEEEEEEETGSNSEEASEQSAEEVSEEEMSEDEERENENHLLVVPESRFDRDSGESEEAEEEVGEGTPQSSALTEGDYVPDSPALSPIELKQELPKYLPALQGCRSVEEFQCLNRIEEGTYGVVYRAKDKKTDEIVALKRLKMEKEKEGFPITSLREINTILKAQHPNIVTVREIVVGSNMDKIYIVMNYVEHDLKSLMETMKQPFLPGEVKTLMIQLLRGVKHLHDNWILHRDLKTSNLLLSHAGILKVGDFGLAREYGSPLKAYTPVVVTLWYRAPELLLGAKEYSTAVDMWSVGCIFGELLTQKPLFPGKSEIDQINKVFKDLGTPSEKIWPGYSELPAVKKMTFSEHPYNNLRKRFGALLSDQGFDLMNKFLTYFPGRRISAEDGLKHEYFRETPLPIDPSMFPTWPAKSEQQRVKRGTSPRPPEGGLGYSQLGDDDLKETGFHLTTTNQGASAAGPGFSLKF
ROCK II, sequence (O75116 whole entry): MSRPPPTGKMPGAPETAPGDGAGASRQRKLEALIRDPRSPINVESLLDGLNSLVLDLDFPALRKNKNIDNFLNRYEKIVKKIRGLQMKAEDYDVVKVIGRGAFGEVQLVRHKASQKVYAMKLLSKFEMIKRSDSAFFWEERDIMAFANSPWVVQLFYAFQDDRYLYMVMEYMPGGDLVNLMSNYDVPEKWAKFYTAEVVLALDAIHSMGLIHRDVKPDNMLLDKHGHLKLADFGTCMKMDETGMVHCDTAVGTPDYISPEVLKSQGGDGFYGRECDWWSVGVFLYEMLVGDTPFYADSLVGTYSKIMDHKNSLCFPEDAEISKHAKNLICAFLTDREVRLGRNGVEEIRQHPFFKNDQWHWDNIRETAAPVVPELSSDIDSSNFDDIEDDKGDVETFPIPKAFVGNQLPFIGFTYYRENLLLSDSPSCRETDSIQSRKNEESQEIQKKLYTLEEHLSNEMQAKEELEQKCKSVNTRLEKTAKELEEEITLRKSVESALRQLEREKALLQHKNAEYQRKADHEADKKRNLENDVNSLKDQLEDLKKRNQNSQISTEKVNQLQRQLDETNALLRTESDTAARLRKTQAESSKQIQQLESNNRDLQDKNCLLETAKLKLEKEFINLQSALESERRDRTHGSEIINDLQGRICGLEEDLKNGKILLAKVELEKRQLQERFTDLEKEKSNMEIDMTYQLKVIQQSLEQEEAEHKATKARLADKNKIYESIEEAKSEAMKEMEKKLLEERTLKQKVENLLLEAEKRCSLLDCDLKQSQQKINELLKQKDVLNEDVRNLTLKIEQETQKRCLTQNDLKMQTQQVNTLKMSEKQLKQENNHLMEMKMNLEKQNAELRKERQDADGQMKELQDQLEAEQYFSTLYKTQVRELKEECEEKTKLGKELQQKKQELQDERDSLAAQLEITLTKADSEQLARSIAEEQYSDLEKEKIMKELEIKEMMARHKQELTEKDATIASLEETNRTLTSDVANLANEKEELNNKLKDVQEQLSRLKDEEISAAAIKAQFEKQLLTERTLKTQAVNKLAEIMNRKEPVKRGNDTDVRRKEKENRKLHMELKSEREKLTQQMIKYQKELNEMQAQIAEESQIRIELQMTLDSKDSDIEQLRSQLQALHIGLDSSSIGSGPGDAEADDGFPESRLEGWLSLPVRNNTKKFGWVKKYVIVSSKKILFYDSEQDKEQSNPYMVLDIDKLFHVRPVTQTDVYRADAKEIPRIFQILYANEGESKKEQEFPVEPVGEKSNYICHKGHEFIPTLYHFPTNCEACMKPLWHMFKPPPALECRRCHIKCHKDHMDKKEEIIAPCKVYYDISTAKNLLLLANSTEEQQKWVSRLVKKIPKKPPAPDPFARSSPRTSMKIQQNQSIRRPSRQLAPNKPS
CDK8, sequence (P49336 whole entry): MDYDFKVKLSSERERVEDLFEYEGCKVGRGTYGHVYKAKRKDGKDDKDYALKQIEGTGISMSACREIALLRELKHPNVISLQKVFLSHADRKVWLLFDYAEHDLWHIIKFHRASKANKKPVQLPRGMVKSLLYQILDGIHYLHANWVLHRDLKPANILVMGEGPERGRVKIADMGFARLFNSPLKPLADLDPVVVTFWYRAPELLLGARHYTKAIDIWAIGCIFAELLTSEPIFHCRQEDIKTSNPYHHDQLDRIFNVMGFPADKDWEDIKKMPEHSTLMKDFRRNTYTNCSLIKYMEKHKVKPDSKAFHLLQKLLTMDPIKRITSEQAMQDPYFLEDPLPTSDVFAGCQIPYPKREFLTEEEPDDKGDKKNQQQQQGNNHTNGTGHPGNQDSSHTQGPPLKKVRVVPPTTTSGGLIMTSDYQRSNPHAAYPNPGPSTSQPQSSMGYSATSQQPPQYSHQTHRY
Sp1, sequence (P08047 whole entry): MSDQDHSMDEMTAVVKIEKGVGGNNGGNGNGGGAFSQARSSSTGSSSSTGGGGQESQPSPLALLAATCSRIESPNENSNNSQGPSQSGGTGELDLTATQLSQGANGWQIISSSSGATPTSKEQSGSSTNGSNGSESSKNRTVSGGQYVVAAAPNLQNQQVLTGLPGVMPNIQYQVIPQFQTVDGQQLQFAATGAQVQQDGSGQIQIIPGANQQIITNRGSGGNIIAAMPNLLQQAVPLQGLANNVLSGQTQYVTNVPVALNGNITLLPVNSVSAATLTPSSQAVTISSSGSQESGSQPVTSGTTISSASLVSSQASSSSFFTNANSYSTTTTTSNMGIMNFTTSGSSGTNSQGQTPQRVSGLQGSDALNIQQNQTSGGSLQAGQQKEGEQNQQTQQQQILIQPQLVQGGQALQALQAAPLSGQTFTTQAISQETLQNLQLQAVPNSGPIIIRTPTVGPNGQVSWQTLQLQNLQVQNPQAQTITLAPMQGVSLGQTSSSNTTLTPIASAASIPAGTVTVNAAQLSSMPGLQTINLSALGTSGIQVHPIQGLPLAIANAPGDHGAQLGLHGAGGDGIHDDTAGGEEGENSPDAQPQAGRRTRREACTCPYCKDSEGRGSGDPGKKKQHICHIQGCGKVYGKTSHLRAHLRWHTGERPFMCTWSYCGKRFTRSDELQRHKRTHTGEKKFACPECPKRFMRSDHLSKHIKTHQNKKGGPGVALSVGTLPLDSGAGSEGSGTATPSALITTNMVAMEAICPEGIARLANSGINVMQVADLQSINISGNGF

SMILES: CN(C)C1CC23CCC4(O2)C(=CCC2(C)C(c5ccc6ccncc6c5)CCC42)C=C3C(O)C1O (stereo not shown) [CA, Cortistatin A]
- EC50 for the inhibition of HIV activity [1]: picomolar to low nanomolar range
- competition for binding of recombinant Tat to Bio-dCA [2]: competed
- interaction with Tat (pull-down) ([2]; flag-tagged Tat expressed in cells or recombinant Tat): interacts
- interaction with TAR-nonbinding basic region Tat mutant (pull-down) [3]: not
- interaction with DNA-PK [4]: seems to interact
- transcription activity from CMV and MLV promoters [5]: reduces the transcription activity
- IC50 [6]: 350 nM
- Kd [7]: 10 ± 2 nM
- Kd [8]: 17 ± 2 nM
- Kd [9]: 220 ± 2 nM
- interaction with Sp1 [10]: not observed
- pull down of RNA polymerase [11]: shown to pull down
- interaction with CDK11 (pull-down) [12]: did not interact

SMILES: Cc1nnc(C(=O)NC(C)(C)c2nc(C(=O)NCc3ccc(F)cc3)c(O)c(=O)n2C)o1 [Raltegravir, reference compound]
- competition for binding of recombinant Tat to Bio-dCA [2]: not
- EC50, HIV-1 replication in primary cells (PBMCs) [13]: similar

SMILES: CN(C)[C@H]1C[C@@]23CC[C@@]4(O2)C(=CC[C@]2(C)C(c5ccc6ccncc6c5)=CC[C@H]24)C=C3[C@@H](OC(=O)CCCCCNC(=O)CCCC[C@@H]2SC[C@@H]3NC(=O)N[C@@H]32)[C@@H]1O.O=C(O)C(F)(F)F.O=C(O)C(F)(F)F [Bio-CA]
- EC50 relative to CA [1]: 10 fold
- viability of the cells [14]: did not compromise the viability of the cells

SMILES: CC(C)(C)NC(=O)[C@@H]1C[C@@H]2CCCC[C@@H]2CN1C[C@@H](O)[C@H](Cc1ccccc1)NC(=O)[C@H](CC(N)=O)NC(=O)c1ccc2ccccc2n1 [saquinavir, reference compound]
- EC50, HIV-1 replication in primary cells (PBMCs) [13]: similar

SMILES: Cc1cn([C@H]2C[C@H](N=[N+]=[N-])[C@@H](CO)O2)c(=O)[nH]c1=O [AZT, zidovudine, reference compound]
- EC50 [15]: 5.2 nM
